Measurements published in the NIST ThermoML archive (doi:10.1021/je400487e).
Numbers after ± are expanded uncertainties.

Conditions: 298.15 K; 101.33 kPa; Liquid; Vibrating tube method

SMILES	mass density
CC(C)CC(C)(C)C [2,2,4-trimethylpentane]	687.77 ± 0.26 kg/m3
CC(=O)N(C)C [N,N-dimethylethanamide]	936.88 ± 0.26 kg/m3
C1CCCCCCC1 [cyclooctane]	831.87 ± 0.26 kg/m3
CCCCCCCCCC [decane]	726.43 ± 0.26 kg/m3
CCCCCCCCCCCC [dodecane]	741.54 ± 0.26 kg/m3
CC1CCCCC1 [methylcyclohexane]	764.86 ± 0.26 kg/m3
CCCCCCCCCCCCCC [tetradecane]	759.27 ± 0.26 kg/m3
